Measured values published in patent US20200268786A1, “RNA CONTAINING COMPOSITIONS AND METHODS OF THEIR USE” (Icahn School of Medicine at Mount Sinai, priority 2015, published 2020).

System: human monocyte derived DCs (moDCs)
Test: cytokine production of human moDCs stimulated with ncRNA (DOTAP liposomal transfection or none)
Format: cell-based
Settings: DOTAP liposomal transfection, 2 ug/ml ncRNA
Method: PCR products were purified by PCR-Cleanup (Qiagen) and controlled by electrophoresis (0.8% Agarose gel). RNAs were generated by in vitro transcription using the mMESSAGE mMACHINE T7 ultra kit (Ambion) followed by a capping and short polyA reaction. RNAs were then purified using RNA-cleanup (Qiagen), quantified using a nanodrop, and checked by electrophoresis after denaturation at 65° C. for 10 minutes (1 5% Agarose gel).
MoDCs and imBM were both stimulated by i-ncRNA in the same way. The culturing of these cells is described below. Briefly, cells were plated in 96 flat well plates at 200,000 cells per well for primary cells (MoDCs) and 100,000 cells per well for lines (IMBM). i-ncRNA were transfected via liposomes formed using DOTAP (Roche Life Science) at a ratio of 1 μg DNA per 6 μl DOTAP diluted in HBS following the user-guide recommendations. The cells were stimulated using 2 μg/ml of purified i-ncRNA versus 10 μg/ml total RNA. To stimulate the TLR4 pathway, 100 ng/ml Ultrapure LPS (Invivogen) was used for TLR2: 500 ng/ml Pam2CSK4 (Invivogen) for TLR3: 2 μg/ml HMW PolyIC (Invivogen) TLR7/8: 1 μg/ml CLO97 (Invivogen) and 100 ng/ml R848 (Invivogen) TLR9: CpG B-ODN 1826 3 μM or STING CDN 5 μg/ml (Aduro).
Human moDCs: Human monocyte derived DCs were differentiated as previously described (Frleta et al., “HIV-1 Infection-Induced Apoptotic Microparticles Inhibit Human DCs via CD44,” J. Clinical Invest. 122:4685 (2012), which is hereby incorporated by reference in its entirety). Briefly, PBMCs were prepared by centrifugation over Ficoll-Hypaque gradients (BioWhittaker) from healthy donor buffy coats (New York Blood Center). Monocytes were isolated from PBMCs by adherence and then treated with 100 U/ml GM-CSF (Leukine Sanofi Oncology) and 300 U/ml IL-4 (RandD) in RPMI plus 5% human AB serum (Gemini Bio Products). Differentiation media was renewed on day 2 and day 4 of culture. Mature moDCs were harvested for use on days 5 to 7. For all experiments, harvested DCs were washed and equilibrated in serum-free X-Vivo 15 media (Lonza).

Molecule	IL-6 production	IL-12 production	TNFalpha production
CCOCc1nc2c(N)nc3ccccc3c2n1CC(C)(C)O [R848]	induced a cellular inflammatory response	induced a cellular inflammatory response	induced a cellular inflammatory response
Poly-IC	induced a cellular inflammatory response	induced a cellular inflammatory response	induced a cellular inflammatory response
